A word on the IC50: it is the point on the concentration scale where inhibition reaches its midpoint. Read a high IC50 as weaker potency in that assay. Usually EC50 stands for the concentration at which the effect is half-maximal. Low values mean a more potent agent, high ones a less potent agent.

Experimental findings from ChEMBL document CHEMBL6134839, “Novel 15-lipoxygenase-1 inhibitor protects cells from RSL3-induced cell death” (Eur J Med Chem, 2025) are described below.

The structures appear in SMILES notation.

Test [1] deals with T1, Polyunsaturated fatty acid lipoxygenase ALOX15 (Homo sapiens, UniProt P16050).
T1 sequence (P16050 whole entry): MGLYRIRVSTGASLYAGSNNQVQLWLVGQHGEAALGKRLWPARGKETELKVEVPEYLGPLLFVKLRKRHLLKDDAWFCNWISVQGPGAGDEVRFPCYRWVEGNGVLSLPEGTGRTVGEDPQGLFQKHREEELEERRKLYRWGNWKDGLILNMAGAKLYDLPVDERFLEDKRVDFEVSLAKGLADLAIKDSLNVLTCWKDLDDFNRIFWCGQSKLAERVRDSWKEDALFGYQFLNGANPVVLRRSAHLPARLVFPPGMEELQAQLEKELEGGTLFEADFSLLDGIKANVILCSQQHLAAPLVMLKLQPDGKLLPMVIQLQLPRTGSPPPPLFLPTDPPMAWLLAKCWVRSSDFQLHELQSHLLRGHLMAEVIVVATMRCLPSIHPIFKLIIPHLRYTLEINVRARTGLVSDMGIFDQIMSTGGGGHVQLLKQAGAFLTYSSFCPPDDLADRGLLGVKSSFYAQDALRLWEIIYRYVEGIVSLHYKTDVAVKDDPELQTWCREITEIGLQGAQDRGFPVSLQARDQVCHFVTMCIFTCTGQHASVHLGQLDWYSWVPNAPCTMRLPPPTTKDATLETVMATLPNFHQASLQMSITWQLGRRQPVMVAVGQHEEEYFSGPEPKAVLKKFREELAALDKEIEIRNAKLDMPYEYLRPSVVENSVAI
Kind of test: Inhibition of human 15-LOX-1 using linoleic acid as substrate preincubated for 10 mins followed by substrate addition.

A short description of test [2]: Inhibition of RSL3-induced lipid peroxidation in human HEK293 cells incubated for 3 hrs by C11-BODIPY581/591 probe based flow cytometry analysis. In kind it is functional, cell-based. Background: A flow cytometer gives signals particle by particle.

For the compound `c1ccc2c(c1)SCc1c-2[nH]c2ccccc12`, in test [1], the IC50 was 10 µM. For the same compound, the EC50 in test [2] worked out at 1.2 µM.
